Laboratory results reported in patent publication US10294202B2, “Pyrrolidinones as herbicides” (FMC Corporation, priority 2013, dated 2019).

What was measured:
barnyardgrass = experiment: Test A pre-/postemergence herbicide test; assay type: in vivo, Echinochloa crus-galli; conditions: for Barnyardgrass plant response rating: Preemergence, visual rating on 0 to 100 scale (0 no effect, 100 complete control)
Procedure, shortened: (§1)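 Directed soil spray to seeded pots (preemergence) or spray onto one- to two-leaf seedlings 2–10 cm tall (postemergence); loam/sand substrate throughout. Evaluated visually after about 10 days against untreated plants, 0 = no effect, 100 = complete control.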

pigweed = experiment: Test A pre-/postemergence herbicide test; assay type: in vivo, Amaranthus retroflexus; conditions: for Pigweed plant response rating: Preemergence, visual rating on 0 to 100 scale (0 no effect, 100 complete control)
Procedure, shortened: as §1

wheat = experiment: Test A pre-/postemergence herbicide test; assay type: in vivo, Triticum aestivum; conditions: for Wheat plant response rating: Preemergence, visual rating on 0 to 100 scale (0 no effect, 100 complete control)
Procedure, shortened: as §1

ducksalad = experiment: Test B flooded paddy test; assay type: in vivo, Heteranthera limosa; conditions: 250 g ai/ha, Flood; scale of 0 to 100 where 0 is no effect and 100 is complete control
Procedure, shortened: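 Plants were grown to the 2-leaf stage, then pots were flooded to 3 cm above the soil and compound was applied directly into the paddy water, with that depth held throughout. After 13 to 15 days in a greenhouse, injury was rated visually against untreated controls on a 0 to 100 scale (100 = complete control).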

blackgrass = experiment: Test C pre-/postemergence herbicide test; assay type: in vivo, Alopecurus myosuroides
Procedure, shortened: (§2)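 Two application timings ran in parallel with identically formulated test chemicals (non-phytotoxic solvent, surfactant included): spray on seeded loam–sand soil, and spray on emerged plants 2 to 18 cm high. Evaluation at 13 to 15 days compared each species with controls, rated from 0 up to 100.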

ryegrass, Italian = experiment: Test C pre-/postemergence herbicide test; assay type: in vivo, Lolium multiflorum
Procedure, shortened: as §2

wheat (winter wheat) = experiment: Test C pre-/postemergence herbicide test; assay type: in vivo, Triticum aestivum
Procedure, shortened: as §2

galium = experiment: Test C pre-/postemergence herbicide test; assay type: in vivo, Galium aparine; conditions: Preemergence
Procedure, shortened: as §2

nutsedge, yellow = experiment: Test C pre-/postemergence herbicide test; assay type: in vivo, Cyperus esculentus
Procedure, shortened: as §2

oilseed rape = experiment: Test C pre-/postemergence herbicide test; assay type: in vivo, Brassica napus; conditions: Preemergence
Procedure, shortened: as §2

[1] = Postemergence, 125 g ai/ha, 0 to 100 scale, 0 no effect, 100 complete control
[2] = Postemergence, 500 g ai/ha, 0 to 100 scale (0 no effect, 100 complete control)
[3] = preemergence, 500 g ai/ha, 0 to 100 scale (0 no effect, 100 complete control)
[4] = preemergence, 500 g ai/ha, 0 to 100 scale
[5] = Preemergence, 31 g ai/ha, scale 0 to 100, 0 is no effect and 100 is complete control
[6] = Preemergence, 62 g ai/ha, scale 0 to 100
[7] = Preemergence, 125 g ai/ha, scale 0 to 100 (0 no effect, 100 complete control)
[8] = 125 g ai/ha, scale 0 to 100 (0 no effect, 100 complete control)
[9] = Postemergence, 16 g ai/ha, scale 0 to 100 (0 no effect, 100 complete control)
[10] = Postemergence, 31 g ai/ha, scale 0 (no effect) to 100 (complete control)
[11] = Postemergence, 62 g ai/ha, scale 0 to 100 (0 no effect, 100 complete control)
[12] = Postemergence, 125 g ai/ha, scale 0 to 100 (0 no effect, 100 complete control)
[13] = Preemergence, 16 g ai/ha, scale 0 to 100

SMILES: O=C1NCC(c2ccc(F)c(C(F)(F)F)c2)C1C(=O)Nc1cccc(F)c1F (racemic) [Compound 77]
- Plant response rating, Barnyardgrass (barnyardgrass; [1]): 70
- Plant response rating, Barnyardgrass (barnyardgrass; [2]): 80
- Barnyardgrass plant response rating (barnyardgrass; 125 g ai/ha): 80
- Plant response rating, Barnyardgrass (barnyardgrass; [3]): 90
- Plant response rating, Pigweed (pigweed; [1]): 40
- Plant response rating, Pigweed (pigweed; [2]): 50
- Pigweed plant response rating (pigweed; 125 g ai/ha): 40
- Plant response rating, Pigweed (pigweed; [4]): 70
- Plant response rating, Wheat (wheat; [1]): 50
- Plant response rating, Wheat (wheat; [2]): 60
- Wheat plant response rating (wheat; 125 g ai/ha): 0
- Plant response rating, Wheat (wheat; [4]): 30
- Plant response rating, Ducksalad (ducksalad): 100
- Blackgrass plant response rating (blackgrass; [5]): 85
- Plant response rating, Blackgrass (blackgrass; [6]): 85
- Plant response rating, Blackgrass (blackgrass; [7]): 85
- Plant response rating (scale of 0 to 100), Blackgrass (blackgrass; Preemergence, 250 g ai/ha): 95
- Ryegrass, Italian plant response rating (ryegrass, Italian; [5]): 40
- Plant response rating, Ryegrass, Italian (ryegrass, Italian; [6]): 40
- Plant response rating, Ryegrass, Italian (ryegrass, Italian; [7]): 40
- Plant response rating (scale of 0 to 100), Ryegrass, Italian (ryegrass, Italian; Preemergence, 250 g ai/ha): 45
- Wheat plant response rating (wheat (winter wheat); [5]): 0
- Plant response rating, Wheat (wheat (winter wheat); [6]): 55
- Plant response rating, Wheat (wheat (winter wheat); [7]): 80
- Plant response rating (scale of 0 to 100), Wheat (wheat (winter wheat); Preemergence, 250 g ai/ha): 90
- Plant response rating, Galium (galium; 62 g ai/ha, scale 0 to 100): 5
- Plant response rating, Galium (galium; [8]): 80
- Plant response rating (scale of 0 to 100), Galium (galium; 250 g ai/ha): 90
- Nutsedge, Yellow plant response rating (nutsedge, yellow; [5]): 0
- Plant response rating, Nutsedge, Yellow (nutsedge, yellow; [6]): 0
- Plant response rating, Nutsedge, Yellow (nutsedge, yellow; [7]): 0
- Plant response rating (scale of 0 to 100), Nutsedge, Yellow (nutsedge, yellow; Preemergence, 250 g ai/ha): 0
- Oilseed Rape plant response rating (oilseed rape; 31 g ai/ha, scale 0 to 100, 0 is no effect and 100 is complete control): 0
- Plant response rating, Oilseed Rape (oilseed rape; 62 g ai/ha, scale 0 to 100): 30
- Plant response rating, Oilseed Rape (oilseed rape; [8]): 60
- Plant response rating (scale of 0 to 100), Oilseed Rape (oilseed rape; 250 g ai/ha): 85

SMILES: O=C1NCC(c2cc(F)c(F)c(F)c2)C1C(=O)Nc1cccc(F)c1F (stereo not shown) [Compound 48]
- Plant response rating, Barnyardgrass (barnyardgrass; [1]): 80
- Plant response rating, Barnyardgrass (barnyardgrass; [2]): 90
- Barnyardgrass plant response rating (barnyardgrass; 125 g ai/ha): 80
- Plant response rating, Barnyardgrass (barnyardgrass; [3]): 90
- Plant response rating, Pigweed (pigweed; [1]): 0
- Plant response rating, Pigweed (pigweed; [2]): 0
- Pigweed plant response rating (pigweed; 125 g ai/ha): 0
- Plant response rating, Pigweed (pigweed; [4]): 0
- Plant response rating, Wheat (wheat; [1]): 20
- Plant response rating, Wheat (wheat; [2]): 40
- Wheat plant response rating (wheat; 125 g ai/ha): 0
- Plant response rating, Wheat (wheat; [4]): 50
- Plant response rating, Ducksalad (ducksalad): 100
- Plant response rating, Blackgrass (blackgrass; [9]): 0
- Plant response rating, Blackgrass (blackgrass; [10]): 0
- Plant response rating, Blackgrass (blackgrass; [11]): 0
- Plant response rating, Blackgrass (blackgrass; [12]): 0
- Plant response rating, Blackgrass (blackgrass; [6]): 20
- Plant response rating, Blackgrass (blackgrass; [7]): 50
- Plant response rating, Blackgrass (blackgrass; [13]): 0
- Blackgrass plant response rating (blackgrass; Preemergence, 31 g ai/ha, scale 0 to 100 (0 no effect, 100 complete control)): 0
- Plant response rating, Ryegrass, Italian (ryegrass, Italian; [9]): 0
- Plant response rating, Ryegrass, Italian (ryegrass, Italian; [10]): 0
- Plant response rating, Ryegrass, Italian (ryegrass, Italian; [11]): 0
- Plant response rating, Ryegrass, Italian (ryegrass, Italian; [12]): 0
- Plant response rating, Ryegrass, Italian (ryegrass, Italian; [6]): 0
- Plant response rating, Ryegrass, Italian (ryegrass, Italian; [7]): 0
- Plant response rating, Ryegrass, Italian (ryegrass, Italian; [13]): 0
- Plant response rating, Wheat (wheat (winter wheat); [9]): 0
- Plant response rating, Wheat (wheat (winter wheat); [10]): 0
- Plant response rating, Wheat (wheat (winter wheat); [11]): 0
- Plant response rating, Wheat (wheat (winter wheat); [12]): 5
- Plant response rating, Wheat (wheat (winter wheat); [6]): 20
- Plant response rating, Wheat (wheat (winter wheat); [7]): 45
- Plant response rating, Wheat (wheat (winter wheat); [13]): 0
- Plant response rating, Galium (galium; 62 g ai/ha, scale 0 to 100): 30
- Plant response rating, Galium (galium; [8]): 60
- Plant response rating, Galium (galium; 16 g ai/ha, scale 0 to 100): 0
- Galium plant response rating (galium; 31 g ai/ha, scale 0 to 100 (0 no effect, 100 complete control)): 0
- Plant response rating, Nutsedge, Yellow (nutsedge, yellow; [9]): 0
- Plant response rating, Nutsedge, Yellow (nutsedge, yellow; [10]): 0
- Plant response rating, Nutsedge, Yellow (nutsedge, yellow; [11]): 0
- Plant response rating, Nutsedge, Yellow (nutsedge, yellow; [12]): 0
- Plant response rating, Nutsedge, Yellow (nutsedge, yellow; [6]): 0
- Plant response rating, Nutsedge, Yellow (nutsedge, yellow; [7]): 20
- Plant response rating, Nutsedge, Yellow (nutsedge, yellow; [13]): 0
